According to US20260191968A1, “PROTAC DEGRADERS OF MLLT1 AND/OR MLLT3” (DARK BLUE THERAPEUTICS LTD, priority 2024, published 2026):

How the values were obtained:
MV4-11 cells = assay: MV4-11 cellular proliferative assay, Assay Format B (CTG 2.0, 168 h); format: cell-based; conditions: Homo sapiens, 168 h (7 days), CTG 2.0, read-out: IC50 (MV4-11 cellular proliferative assay, Assay format B)
Outline: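 MV4-11 cells seeded overnight in IMDM + 10% FBS, then exposed to 10-point, 3-fold dilutions from 1 uM or 100 nM top concentration (0.3% DMSO final) for 168 h at 37 °C. CTG 2.0 luminescence read; % viability vs DMSO control fitted by four-parameter logistic regression.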

MLLT1 = target: T1, MLLT1 (Homo sapiens, UniProt Q03111); assay: MLLT1 degradation assay in MV4-11 cells (JESS chemiluminescent detection), three concentrations, 24 h; format: cell-based; conditions: with respect to DMSO control
T1 construct: host or cells: MV4-11
T1 sequence (Q03111 1-559): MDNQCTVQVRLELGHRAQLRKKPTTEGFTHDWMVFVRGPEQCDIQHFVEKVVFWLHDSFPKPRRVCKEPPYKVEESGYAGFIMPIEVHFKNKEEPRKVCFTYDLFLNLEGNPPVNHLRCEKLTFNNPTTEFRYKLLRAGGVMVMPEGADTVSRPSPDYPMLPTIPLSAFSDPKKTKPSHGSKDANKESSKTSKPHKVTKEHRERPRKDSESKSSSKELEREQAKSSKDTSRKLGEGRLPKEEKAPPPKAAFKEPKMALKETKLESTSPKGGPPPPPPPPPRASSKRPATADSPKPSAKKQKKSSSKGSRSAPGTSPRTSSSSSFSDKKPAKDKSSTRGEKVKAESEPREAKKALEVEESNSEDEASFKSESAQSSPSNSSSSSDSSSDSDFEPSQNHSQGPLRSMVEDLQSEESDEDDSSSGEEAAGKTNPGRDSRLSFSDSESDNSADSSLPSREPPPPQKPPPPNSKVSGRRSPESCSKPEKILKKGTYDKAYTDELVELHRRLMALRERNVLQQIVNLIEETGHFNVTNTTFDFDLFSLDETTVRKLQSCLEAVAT
Outline: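 MV4-11 cells treated 24 h at 37° C, 5% CO2 with 1000, 100 and 10 nM compound (0.1% DMSO final). MLLT1 quantified by automated capillary chemiluminescent immunodetection; band peak area expressed as % degradation relative to DMSO control.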

Structure (SMILES) | IC50 (MV4-11 cells) | MLLT1% Degradation @ 0.01 μM (MLLT1) | MLLT1% Degradation @ 0.1 μM (MLLT1) | MLLT1% Degradation @ 1 μM (MLLT1)
CN1CCC[C@@H]1c1cc2cnc(NC(=O)c3cnc(N4CCN(CC#Cc5cccc6c5CN(C5CCC(=O)NC5=O)C6=O)CC4)nc3)cc2[nH]1 (stereo partly drawn) [Example 89, 2-(4-(3-(2-(2,6-dioxopiperidin-3-yl)-1-oxoisoindolin-4-yl)prop-2-yn-1-yl)piperazin-1-yl)-N-(2-((R)-1-methylpyrrolidin-2-yl)-1H-pyrrolo[3,2-c]pyridin-6-yl)pyrimidine-5-carboxamide] | ≤ 100 nM | A (Category A: A ≥ 75% degradation) | A (Category A: A ≥ 75% degradation) | C (Category C: 25% ≤ C < 50% degradation)
CN1CCC[C@@H]1c1cc2cnc(NC(=O)c3ccc(CCCC#Cc4ccc(F)c5c4CN(C4CCC(=O)NC4=O)C5=O)cc3)cc2[nH]1 (stereo partly drawn) [Example 91, 4-(5-(2-(2,6-dioxopiperidin-3-yl)-7-fluoro-1-oxoisoindolin-4-yl)pent-4-yn-1-yl)-N-(2-((R)-1-methylpyrrolidin-2-yl)-1H-pyrrolo[3,2-c]pyridin-6-yl)benzamide] | ≤ 100 nM | A (Category A: A ≥ 75% degradation) | A (Category A: A ≥ 75% degradation) | A (Category A: A ≥ 75% degradation)
CN1CCC[C@@H]1c1cc2cnc(NC(=O)c3ccc(CCCC#Cc4cccc5c4CN(C4CCC(=O)NC4=O)C5=O)c(F)c3)cc2[nH]1 (stereo partly drawn) [Example 93, 4-(5-(2-(2,6-dioxopiperidin-3-yl)-1-oxoisoindolin-4-yl)pent-4-yn-1-yl)-3-fluoro-N-(2-((R)-1-methylpyrrolidin-2-yl)-1H-pyrrolo[3,2-c]pyridin-6-yl)benzamide] | ≤ 100 nM | A (Category A: A ≥ 75% degradation) | A (Category A: A ≥ 75% degradation) | A (Category A: A ≥ 75% degradation)
CN1CCC[C@@H]1c1cc2cnc(NC(=O)c3ccc(CCCC#Cc4cccc5c4CN(C4CCC(=O)NC4=O)C5=O)cc3F)cc2[nH]1 (stereo partly drawn) [Example 94, 4-(5-(2-(2,6-dioxopiperidin-3-yl)-1-oxoisoindolin-4-yl)pent-4-yn-1-yl)-2-fluoro-N-(2-((R)-1-methylpyrrolidin-2-yl)-1H-pyrrolo[3,2-c]pyridin-6-yl)benzamide] | ≤ 100 nM | A (Category A: A ≥ 75% degradation) | A (Category A: A ≥ 75% degradation) | A (Category A: A ≥ 75% degradation)
CN1CCC[C@@H]1c1cc2cnc(NC(=O)c3cccc(CCCC#Cc4cccc5c4CN(C4CCC(=O)NC4=O)C5=O)c3)cc2[nH]1 (stereo partly drawn) [Example 95, 3-(5-(2-(2,6-dioxopiperidin-3-yl)-1-oxoisoindolin-4-yl)pent-4-yn-1-yl)-N-(2-((R)-1-methylpyrrolidin-2-yl)-1H-pyrrolo[3,2-c]pyridin-6-yl)benzamide] | ≤ 100 nM | A (Category A: A ≥ 75% degradation) | A (Category A: A ≥ 75% degradation) | A (Category A: A ≥ 75% degradation)
CN1CCC[C@@H]1c1cc2cnc(NC(=O)c3cccc(CCCCC#Cc4cccc5c4CN(C4CCC(=O)NC4=O)C5=O)c3)cc2[nH]1 (stereo partly drawn) [Example 96, 3-(6-(2-(2,6-dioxopiperidin-3-yl)-1-oxoisoindolin-4-yl)hex-5-yn-1-yl)-N-(2-((R)-1-methylpyrrolidin-2-yl)-1H-pyrrolo[3,2-c]pyridin-6-yl)benzamide] | ≤ 100 nM | A (Category A: A ≥ 75% degradation) | A (Category A: A ≥ 75% degradation) | A (Category A: A ≥ 75% degradation)
